Measured values as given in paper PMC12035931, “Biologically active withanolides from Physalis peruviana” (Pharmaceutical Biology, 2025).
Counter-ions that a name gives are not always drawn. Like-named read-outs stand apart in the source and are kept apart here.

What was measured:
[1] = system: TNF-α-induced NF-κB activity; assay: Inhibition of TNF-α-activated NF-κB, luciferase reporter assay in HEK293 cells; format: cell-based, human; details: for inhibition at 50 µM: read-out: NF-κB assay % inhib.
Text: To study the inhibition of tumor necrosis factor-alpha (TNF-α)-induced activation of nuclear factor-kappa B (NF-κB), human embryonic kidney 293 cells (HEK293) stably transfected with an NF-κB-responsive luciferase reporter construct (Cat. No. RC0014, Panomics, Fremont, CA, USA) were utilized, following previously described protocols (Kondratyuk et al. [2012]). This cell line incorporates a chromosomally integrated luciferase reporter, which produces luciferase enzyme upon NF-κB activation. The enzyme reacts with its substrate to produce a luminescent signal, detectable via luminometry. Cells were seeded at a density of 2 × 10^4 cells/mL in 96-well plates and cultured in Dulbecco’s Modified Eagle Medium (DMEM, Cat. No. D6429, Sigma-Aldrich, Saint Louis, MO, USA) supplemented with 10% fetal bovine serum (FBS, Cat. No. A5670701, Gibco™, Thermo Fisher Scientific, Waltham, MA, USA). The medium also contained 100 µg/mL streptomycin sulfate and 100 IU/mL penicillin G (Cat. No.15140 Gibco BRL, Grand Island, NY, USA). The cells were then treated with varying concentrations of the test sample and stimulated with recombinant human TNF-α (2 ng/mL, Cat. No. HZ-1014, Proteintech Group, Inc. Rosemont, IL, USA).
Following a 6-hour incubation, the cells were rinsed with phosphate buffer saline (PBS), lysed with 40 μL of 1X Reporter Lysis Buffer (Cat. No. E2661, Promega, Madison, WI, USA), and subjected to a freeze-thaw cycle (−80 °C/37 °C). Luminescence, generated by the luciferase reaction, was quantified using the Luc assay system (Cat. No. N1610, Promega, Madison, WI, USA) and a LUMIstar Galaxy luminometer (BMG, Offenburg, Germany).

[2] = system: NO production in LPS-activated murine macrophage RAW 264.7 cells; assay: cells; format: cell-based, mouse; details: for inhibition at 50 µM / IC50: Mus musculus; for inhibition at 50 µM: read-out: Nitrite assay % inhib.; for NO inhibitory activity: compared with positive control L-NMMA / within the series
Method: The inhibition of nitric oxide (NO) production in lipopolysaccharide (LPS)-stimulated murine macrophage RAW 264.7 cells was evaluated following previously described methods (Min et al. [2009]). RAW 264.7 cell line was purchased from ATCC (Cat. No. TIB-71, Manassas, VA, USA) and cultured in Dulbecco’s modified Eagle’s medium (DMEM, Cat. No. 12800-082, Invitrogen, Massachusetts, USA) supplemented with 10% heat-inactivated fetal bovine serum (FBS, Cat. No. 26140, Gibco BRL Co, Grand Island, NY, USA), 100× penicillin G and streptomycin (Cat. No.11074440001, Sigma-Aldrich, Saint Louis, MO, USA) and 2 mM L-glutamine (Cat. No. 25030, Gibco BRL Co, Grand Island, NY, USA). Cells were seeded at 10 × 10^5 cells per well in 96-well plates and incubated for 24 h at 37 °C in a humidified atmosphere containing 5% CO2.
(§1) Test compounds were dissolved in phenol red-free DMEM (Cat. No. 12-917 F, Lonza, Massachusetts, USA) and added to the cells as a pretreatment for 30 min. The cells were then exposed to LPS (1 µg/mL, Cat. No. L-2762, Sigma-Aldrich, Saint Louis, MO, USA) for 20 h. Nitric oxide levels were quantified using the Griess reagent, which consists of a 1:1 (v/v) mixture of 1% sulfanilamide (Cat.No. A13001, Alfa Aesar, Massachusetts, USA) in H3PO4 and N-(1-naphthyl)ethylenediamine dihydrochloride (Cat. No. 102397, MP Biomedicals, USA). A standard curve was generated using sodium nitrite (Cat. No. 44227, Alfa Aesar, Massachusetts, USA), and IC50 values were calculated using Table Curve 2D software (Version 4.07, AISN Software Inc., Richmond, VA, USA). Also, a sulforhodamine B (SRB, Cat. No. S9012, Sigma-Aldrich, Saint Louis, MO, USA) assay was performed to assess the cytotoxic effects of the test compounds on RAW 264.7 cells.

[3] = system: human embryonic kidney 293 cells (HEK293); assay: Cell survival in the NF-κB assay; format: cell-based
[4] = system: RAW 264.7 cells; assay: SRB cytotoxicity / survival of RAW 264.7 cells in the nitrite assay; format: cell-based, mouse; details: for Nitrite assay % surv.: % survival at a concentration of 50 μM, RAW 264.7; for cytotoxicity in NO assay: RAW 264.7 cells
Method: as §1

[5] = system: NO-production in LPS-stimulated RAW 264.7 cells; design: method as in Choudhari et al. [2013]; Park et al. [2019]; details: ref Choudhari et al. [2013], Park et al. [2019], read-out: NO-production IC50 (literature); cited from earlier work
[6] = SRB cytotoxicity / survival of RAW 264.7 cells in the nitrite assay; format: cell-based, mouse; details: mouse; cytotoxicity in RAW 264.7 cells, NO assay; read-out: cytotoxic IC50
Method: as §1

[7] = Homo sapiens, HEK293, % inhibition at a concentration of 50 μM, TNF-α 2 ng/mL, 6 h
[8] = Homo sapiens, TNF-α-induced NF-κB luciferase, HEK293, read-out: NF-κB assay IC50
[9] = RAW264.7, read-out: Nitrite assay IC50
[10] = Homo sapiens, HEK293, read-out: NF-κB assay IC50
[11] = RAW264.7, % inhibition of NO at 50 μM, LPS 1 µg/mL, 20 h
[12] = RAW264.7, LPS-activated RAW 264.7 cells, read-out: Nitrite assay IC50
[13] = % survival at a concentration of 50 μM
[14] = acetate versus parent, from IC50

| SMILES | inhibition at 50 µM [1, 7] [%] | IC50 [1, 8] [µM] | inhibition at 50 µM ([2]; RAW264.7, 20 h) [%] | IC50 [2, 9] [µM] | NF-κB assay % surv. ([3]; human, 6 h, 50 µM) [%] | Nitrite assay % surv. [4] [%] | cytotoxicity in NO assay [4] | other results |
| --- | --- | --- | --- | --- | --- | --- | --- | --- |
| CC1=C(C)C(=O)OC(C(C)(O)C2(O)CCC3(O)C4CC(O)C5(O)C(O)C(O)CC(=O)C5(C)C4CCC32C)C1 [Compound 1, (20S,22R)-3α,4β,5α,6β,14α,17β,20β-heptahydroxy-1-oxowitha-24-ene-26,22-olide] | 93.4 ± 1.2 | 0.01 ± 0.01 | 82.4 ± 1.1 | 13.3 ± 0.2 | 100 ± 24.5 | 100 ± 1.1 | without significant cytotoxicity |  |
| CC1=C(C)C(=O)OC(C(C)(O)C2(O)CCC3(O)C4CC(Cl)C5(O)C(O)C=CC(=O)C5(C)C4CCC32C)C1 [Compound 2, (20S,22R)-4β,5β,14α,17β,20α-pentahydroxy-6α-chloro-1-oxowitha-2,24-diene-22,26-olide] | 97.4 ± 1.1 | 0.06 ± 0.02 | 99.4 ± 0.1 | 3.3 ± 0.3 | 100.0 ± 14.4 | 96.1 ± 3.2 | without significant cytotoxicity |  |
| CC(=O)OC1C=CC(=O)C2(C)C3CCC4(C)C(O)(CCC4(O)C(C)(O)C4CC(C)=C(C)C(=O)O4)C3CC(Cl)C12O (stereo not shown) [Compound 2a] | 92.2 ± 0.6 | 1.1 ± 0.42 | 99.2 ± 2.6 | 8.7 ± 0.6 | 12.3 ± 7.58 | 93.2 ± 2.3 | without significant cytotoxicity |  |
| CC1=C(C)C(=O)OC([C@](C)(O)[C@]2(O)CC[C@@]3(O)C4C[C@H]5O[C@]56[C@@H](O)C=CC(=O)[C@]6(C)C4CC[C@]23C)C1 (stereo partly drawn) [Compound 3, 4β-hydroxywithanolide E] | 99.5 ± 0.1 | 0.04 ± 0.03 | 99.2 ± 0.4 | 0.32 ± 0.02 | 88.6 ± 10.1 | 50.1 ± 2.3 |  | IC50 [5]: 0.9 µM; IC50 at 20 h [6]: 14 µM |
| CC(=O)O[C@H]1C=CC(=O)[C@]2(C)C3CC[C@]4(C)[C@](O)([C@@](C)(O)C5CC(C)=C(C)C(=O)O5)CC[C@@]4(O)C3C[C@H]3O[C@]132 (stereo partly shown) [Compound 3a] | 99.9 ± 0.9 | 0.47 ± 0.61 | 99.2 ± 0.4 | 0.24 ± 0.01 | 2.2 ± 2.6 | 38.9 ± 2.3 |  | NO inhibitory activity [2]: most active; IC50 at 20 h [6]: 2.1 µM |
| CO[C@H]1CC(=O)[C@]2(C)C3CC[C@@]4(C)C(=C3C[C@H]3O[C@]32[C@H]1O)CC[C@@]4(O)[C@@](C)(O)C1CC(C)=C(C)C(=O)O1 (stereo partly shown) [Compound 4, physalactone] |  |  |  |  |  | 90.7 ± 5.0 | without significant cytotoxicity | inhibition at 50 µM ([1]; Homo sapiens, HEK293, 6 h): 66.7 ± 3.9%; IC50 [1, 10]: 11 ± 2.3 µM; inhibition at 50 µM [2, 11]: 97.9 ± 2%; IC50 [2, 12]: 1.8 ± 0.17 µM; NF-κB assay % surv. [3, 13]: 100.0 ± 16.6% |
| CO[C@H]1CC(=O)[C@]2(C)C3CC[C@@]4(C)C(=C3C[C@H]3O[C@]32[C@H]1OC(C)=O)CC[C@@]4(O)[C@@](C)(O)C1CC(C)=C(C)C(=O)O1 (stereo partly shown) [Compound 4a] |  |  |  |  |  | 40.3 ± 4.1 |  | inhibition at 50 µM ([1]; Homo sapiens, HEK293, 6 h): 88 ± 1.3%; IC50 [1, 10]: 0.33 ± 0.1 µM; NF-κB activity enhanced relative to parent compound [1, 14]: over 30 fold; inhibition at 50 µM [2, 11]: 99.8 ± 0.3%; IC50 [2, 12]: 0.24 ± 0.01 µM; NO inhibitory activity [2]: most active; NF-κB assay % surv. [3, 13]: 77.7 ± 5.3% |
| CC1=C(C)C(=O)OC([C@](C)(O)[C@]2(O)CC[C@@]3(O)C4C[C@@H](O)C5=CC=CC(=O)[C@]5(C)C4CC[C@]23C)C1 (stereo partly shown) [Compound 5, withaperuvin C] | 85 ± 4.4 | 5.6 ± 2.1 | 99.2 ± 0.7 | 2.4 ± 0.2 | 100.0 ± 8.0 | 79.3 ± 1.2 | without significant cytotoxicity |  |
| CC(=O)O[C@@H]1CC2C(CC[C@]3(C)[C@](O)([C@@](C)(O)C4CC(C)=C(C)C(=O)O4)CC[C@@]23O)[C@@]2(C)C(=O)C=CC=C12 (stereo partly shown) [Compound 5a, withaperuvin C acetate] | 78.3 ± 3 | 2.4 ± 1.7 | 99 ± 0.3 | 1.8 ± 0.1 | 47.0 ± 6.0 | 98.8 ± 1.4 | without significant cytotoxicity |  |
| CC(=O)OC1C[C@H](O)CC2=CCC3C4CCC([C@@](C)(O)[C@H](O)C[C@@H]5COC(=O)[C@@]5(C)O)[C@@]4(C)CCC3[C@]21C (stereo partly shown) [Compound 6, perulactone C] | 56.1 ± 3.9 | 1.1 ± 0.48 | 84.2 ± 3.7 | 11.8 ± 0.3 | 36.5 ± 1.9 | 95.3 ± 11.0 | without significant cytotoxicity |  |
| CC(=O)OC1C[C@H](OC(C)=O)CC2=CCC3C4CCC([C@@](C)(O)[C@@H](C[C@@H]5COC(=O)[C@@]5(C)O)OC(C)=O)[C@@]4(C)CCC3[C@]21C (stereo partly shown) [Compound 6a] | 77.4 ± 7.3 | 10.5 ± 2.55 | 20.6 ± 3 |  | 21.8 ± 0.8 | 92.0 ± 5.0 |  | NF-κB activity diminished relative to parent compound [1, 14]: about 10 fold |
| CC1=C(CO)CC(C(C)(O)C2(O)CCC3(O)C4CC(O)C5(O)CC=CC(=O)C5(C)C4CCC32C)OC1=O (stereo not shown) [Compound 7, phyperunolide B] | 41 ± 6.9 |  | 7.4 ± 3.5 |  | 81.6 ± 8.4 | 100.0 ± 14.1 |  |  |
| CC1=C(C)C(=O)OC(C(C)(O)C2(O)CC(O)C3(O)C4CC(O)C5(O)CC=CC(=O)C5(C)C4CCC32C)C1 (stereo not shown) [Compound 8, coagulin H] | 70.2 ± 8.1 | 8.9 ± 1.1 | 67.1 ± 2.2 | 16.7 ± 0.4 | 82.2 ± 3.9 | 100.0 ± 6.3 |  |  |
| [H]/N=C(/NC)NCCC[C@H](N)C(=O)O [L-NMMA, L-N^G-Monomethyl arginine citrate, reference compound] |  |  |  |  |  |  |  | IC50 [2, 12]: 23.5 ± 3.4 µM |
| Cc1ccc(S(=O)(=O)N[C@@H](Cc2ccccc2)C(=O)CCl)cc1 [TPCK, Nα-tosyl-L-phenylalanine chloromethyl ketone, reference compound] |  |  |  |  |  |  |  | IC50 ([1]; TNF-α-induced NF-κB luciferase, HEK293, read-out: NF-κB assay IC50): 7.08 ± 1.72 µM |
